In patent US7399638B2, “Prediction method for lipidosis” (Takeda Pharmaceutical Company Limited, priority 2003, dated 2008):
Where two headings read alike, the source gives them in different places. Marks after values point to notes of the source that are not given here.

Tests used:
Crj: CD(SD)IGS rats [1] = settings: rat, gavage once daily for 3 days; printed on the line of the lowest dose, dose group unclear
Method: Each test drug was administered by gavage at a dosing liquid volume of 10 mL/kg/day once daily for 3 days (4 days for the negative control). The animals were examined for mortality, general conditions, body weight, food consumption and the like using PM4800 (Mettler) and EB3200D (Shimadzu Corporation).
Crj: CD(SD)IGS rats [2] = assay: Urinary PAG/hippuric acid ratio by 1H NMR in rats; settings: rat urine, 3 days, mean n = 3-4
Method: During the urine pooling, the collecting vessels were kept in an ice-cooled condition. After the urine collection, the urine was centrifuged at 1500×g for 10 minutes, and not less than 1 mL of the supernatant was collected and stored under freezing (below −70° C.) in a microtube in an ultralow-temperature freezer until the measurement. For the negative control group, 24-hour pooled urine was collected under ice cooling; after the urine collection, the urine was stored at −30° C. until the measurement.
Crj: CD(SD)IGS rats [3] = settings: male, rat, in vivo, 3 days
Method: (§1) The following 10 kinds of commercially available drugs were examined as the test compounds for a potential of inducing PLsis by histopathological examination and peripheral blood lymphocyte testing.
(§2) The following experiments were performed using the prematurely autopsied animals.
(§3) The high-dose dosing suspension was diluted about 3 fold and 10 fold with dispersant/solvent to prepare intermediate- and low-dose dosing suspensions. […] [For LD50, the Summary Basis of Approval (FDA) for each drug was referenced to.]
(§4) The animals were examined for mortality, general conditions, body weight, food consumption and the like using PM4800 (Mettler) and EB3200D (Shimadzu Corporation).
Hematological examination was performed for parameters such as RBC count, hematocrit, hemoglobin concentration, mean corpuscular hemoglobin (MCH), mean corpuscular hemoglobin concentration (MCHC), mean corpuscular volume (MCV), platelet count, WBC count, reticulocyte count, differential WBC, and vacuolated lymphocyte ratio (for PLsis-inducing compounds only) using ADVIA120 (Bayer Medical Ltd.) and E-4000 (Sysmex Corporation).

male cynomolgus monkeys [4] = settings: cynomolgus monkey, in vivo, 60 mg/kg
Method: Amiodarone and perhexiline were purchased from SIGMA Company.
(§5) Subsequently, the animals were allocated to four groups (5 animals in total) comprising 2 animals in the control group and 1 male in each treatment group, respectively.
(§6) The high-dose dosing suspension was diluted with the dispersant/solvent to prepare a low-dose dosing suspension.
After completion of the administration, livers, kidneys, hearts, spleens, lungs, mesenteric lymph nodes, eyeballs, testes and brains were collected from all animals, and examined for histopathological changes by conventional method of optical microscopy. Additionally, blood samples were collected in the pre-dosing period, on the first day of administration, and on days 2 and 6 of treatment period, blood smear specimens were prepared, and vacuolated lymphocyte ratios were determined.

male cynomolgus monkeys [5] = assay: Urinary PAGN/hippuric acid ratio by 1H NMR in monkeys; format: in vivo, cynomolgus monkey; settings: for Urinary PAGN/hippuric acid ratio: male cynomolgus monkey, 60 mg/kg/day by gavage for 7 days
Method: as §5, §6
Pooled urine was collected from the monkeys in the Example above under fasting for about 6 hours in the pre-dosing period (Pre), on the first day of administration (Day 0), and on days 2 and 6 of treatment period (Days 2 and 6).
^1H NMR was performed as described below. Reagents were used without purification. Heavy water (D2O) was purchased from ISOTEC. […] INC (USA).
A phosphate buffer solution was prepared as described below.
Operating conditions were set as shown below.

Crj: CD(SD)IGS rats [6] = settings: rat, in vivo
Method: as §1, §2, §3, §4

SMILES: NC12CC3CC(CC(C3)C1)C2 [Amantadine]
- death (note beside the dose) (Crj: CD(SD)IGS rats [1]): (death)
- PAG + hippuric acid/creatinine (Crj: CD(SD)IGS rats [2]; 75 mg/kg/day by gavage): 1.44
- PAG/PAG + hippuric acid (Crj: CD(SD)IGS rats [2]; 75 mg/kg/day by gavage): 16.17%
- PAG/creatinine (first term of PAG + hippuric acid) (Crj: CD(SD)IGS rats [2]; 75 mg/kg/day by gavage): 0.23
- PAG/hippuric acid (Crj: CD(SD)IGS rats [2]; 75 mg/kg/day by gavage): 19.31%
- PAG + hippuric acid/creatinine (Crj: CD(SD)IGS rats [2]; 250 mg/kg/day by gavage): 1.21
- PAG/PAG + hippuric acid (Crj: CD(SD)IGS rats [2]; 250 mg/kg/day by gavage): 16.18%
- PAG/creatinine (first term of PAG + hippuric acid) (Crj: CD(SD)IGS rats [2]; 250 mg/kg/day by gavage): 0.20
- PAG/hippuric acid (Crj: CD(SD)IGS rats [2]; 250 mg/kg/day by gavage): 19.69%
- hippuric acid/creatinine (second term of PAG + hippuric acid) (Crj: CD(SD)IGS rats [2]; 250 mg/kg/day by gavage): 1.02
- PAG + hippuric acid/creatinine (Crj: CD(SD)IGS rats [2]; 750 mg/kg/day by gavage): 0.37
- PAG/PAG + hippuric acid (Crj: CD(SD)IGS rats [2]; 750 mg/kg/day by gavage): 56.58%
- PAG/creatinine (first term of PAG + hippuric acid) (Crj: CD(SD)IGS rats [2]; 750 mg/kg/day by gavage): 0.21
- PAG/hippuric acid (Crj: CD(SD)IGS rats [2]; 750 mg/kg/day by gavage): 130.33%
- hippuric acid/creatinine (second term of PAG + hippuric acid) (Crj: CD(SD)IGS rats [2]; 750 mg/kg/day by gavage): 0.16

SMILES: C1CCC(C(CC2CCCCN2)C2CCCCC2)CC1 (stereo not shown) [Perhexiline, perhexiline]
- Mean vacuolated lymphocyte ratio (Crj: CD(SD)IGS rats [3]; 60 mg/kg/day): 2%
- Mean vacuolated lymphocyte ratio (Crj: CD(SD)IGS rats [3]; 200 mg/kg/day): 4%
- Mean vacuolated lymphocyte ratio (Crj: CD(SD)IGS rats [3]; 600 mg/kg/day): 52%
- histopathological changes in any target organ (male cynomolgus monkeys [4]): observed
- vacuolated lymphocyte ratio (male cynomolgus monkeys [4]): increase
- PAGN/hippuric acid ratio compared to the control group (male cynomolgus monkeys [5]; cynomolgus monkey urine, 60 mg/kg, gavage 7 days): increased
- Urinary PAGN/hippuric acid ratio (male cynomolgus monkeys [5]; Day 0, 1 animal): 2.17
- Urinary PAGN/hippuric acid ratio (male cynomolgus monkeys [5]; Day 2, 1 animal): 1.43
- Urinary PAGN/hippuric acid ratio (male cynomolgus monkeys [5]; Day 6, 1 animal): ↑12.89
- Urinary PAGN/hippuric acid ratio (male cynomolgus monkeys [5]; Pre (pre-dosing period), 1 animal): 1.10
- Histopathological changes (PLsis): Liver (Crj: CD(SD)IGS rats [6]; 60 mg/kg/day): −
- Histopathological changes (PLsis): Lung (Crj: CD(SD)IGS rats [6]; 60 mg/kg/day): −
- Histopathological changes (PLsis): Lymph node (Crj: CD(SD)IGS rats [6]; 60 mg/kg/day): −
- Histopathological changes (PLsis): Others (Crj: CD(SD)IGS rats [6]; 60 mg/kg/day): −
- Histopathological changes (PLsis): Spleen (Crj: CD(SD)IGS rats [6]; 60 mg/kg/day): −
- Histopathological changes (PLsis): Liver (Crj: CD(SD)IGS rats [6]; 200 mg/kg/day): −
- Histopathological changes (PLsis): Lung (Crj: CD(SD)IGS rats [6]; 200 mg/kg/day): +
- Histopathological changes (PLsis): Lymph node (Crj: CD(SD)IGS rats [6]; 200 mg/kg/day): +
- Histopathological changes (PLsis): Others (Crj: CD(SD)IGS rats [6]; 200 mg/kg/day): −
- Histopathological changes (PLsis): Spleen (Crj: CD(SD)IGS rats [6]; 200 mg/kg/day): −
- Histopathological changes (PLsis): Liver (Crj: CD(SD)IGS rats [6]; 600 mg/kg/day): −
- Histopathological changes (PLsis): Lung (Crj: CD(SD)IGS rats [6]; 600 mg/kg/day): +
- Histopathological changes (PLsis): Lymph node (Crj: CD(SD)IGS rats [6]; 600 mg/kg/day): +
- Histopathological changes (PLsis): Others (Crj: CD(SD)IGS rats [6]; 600 mg/kg/day): −
- Histopathological changes (PLsis): Spleen (Crj: CD(SD)IGS rats [6]; 600 mg/kg/day): +
- PAG + hippuric acid/creatinine (Crj: CD(SD)IGS rats [2]; 60 mg/kg/day by gavage): 1.47
- PAG/PAG + hippuric acid (Crj: CD(SD)IGS rats [2]; 60 mg/kg/day by gavage): 10.16%
- PAG/creatinine (first term of PAG + hippuric acid) (Crj: CD(SD)IGS rats [2]; 60 mg/kg/day by gavage): 0.15
- PAG/hippuric acid (Crj: CD(SD)IGS rats [2]; 60 mg/kg/day by gavage): 11.39%
- hippuric acid/creatinine (second term of PAG + hippuric acid) (Crj: CD(SD)IGS rats [2]; 60 mg/kg/day by gavage): 1.31
- PAG + hippuric acid/creatinine (Crj: CD(SD)IGS rats [2]; 200 mg/kg/day by gavage): 1.52
- PAG/PAG + hippuric acid (Crj: CD(SD)IGS rats [2]; 200 mg/kg/day by gavage): 15.59* %
- PAG/creatinine (first term of PAG + hippuric acid) (Crj: CD(SD)IGS rats [2]; 200 mg/kg/day by gavage): 0.24
- PAG/hippuric acid (Crj: CD(SD)IGS rats [2]; 200 mg/kg/day by gavage): 18.49%
- hippuric acid/creatinine (second term of PAG + hippuric acid) (Crj: CD(SD)IGS rats [2]; 200 mg/kg/day by gavage): 1.28
- PAG + hippuric acid/creatinine (Crj: CD(SD)IGS rats [2]; 600 mg/kg/day by gavage): 0.75*
- PAG/PAG + hippuric acid (Crj: CD(SD)IGS rats [2]; 600 mg/kg/day by gavage): 45.67* %
- PAG/creatinine (first term of PAG + hippuric acid) (Crj: CD(SD)IGS rats [2]; 600 mg/kg/day by gavage): 0.31
- PAG/hippuric acid (Crj: CD(SD)IGS rats [2]; 600 mg/kg/day by gavage): 146.97* %
- hippuric acid/creatinine (second term of PAG + hippuric acid) (Crj: CD(SD)IGS rats [2]; 600 mg/kg/day by gavage): 0.44
